From patent US20250026721A1, “COMPOUNDS AND METHODS FOR MODULATING RAS-PI3K” (Vividion Therapeutics, Inc., priority 2023, published 2025) come the findings set out here.

One test has as its target T1, PIK3CA (Homo sapiens, UniProt P42336).
T1 construct: endogenous in cells; host or cells: Jurkat cell lysate
Briefly: In vitro ELISA target engagement assay for PIK3CA in Jurkat cellular lysate (competition with PIK3CA Biotin Probe). To be noted: 1 hour at rt, then 500 nM PIK3CA Biotin Probe, read-out: Elisa Target Engagement Assay (TE50). The format is binding. The essentials: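 Competition format in Jurkat lysate: compound (serial dilutions, top 200 μM) for 1 h at rt, then 500 nM final biotinylated PIK3CA probe for 1 h at rt. Sandwich ELISA with capture antibody and Neutravidin-HRP luminescence read-out measured probe-labelled PIK3CA, giving TE50.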
Background: In an ELISA, binding on a coated surface is turned into a signal by an enzyme label.

Test [1] relates to pAKT(S473) in H358 cell line. Briefly: In vitro Phospho-AKT(S473) HTRF analysis in H358 cells. The conditions noted are these: Homo sapiens, NCI-H358, 0.5 h; for IC50: H358 cells, 30 minutes at 37° C.; for Emax: read-out: H358 pAKT Imax % control. Type of test: cell-based. Here is the method: Example 5. In Vitro Phosgho-AKT(S473) Analysis
Functional activity of the compounds to inhibit pAKT were assessed in FaDu or H358 cell lines as indicated below.
• Complete Media • FBS, Corning catalog #35-010-CV • Anti-Anti, Gibco catalog #15240-062 • 96 well plate, Corning catalog #3610 • TrypLE, Gibco catalog #12604013 • Phospho-AKT(S473) HTRF kit, Cisbio catalog #64AKSPET
Cells were detached from the tissue culture flask with TrypLE. The cells were pelleted at 500×g for 5 min, TrypLe was removed and then resuspended in the necessary volume of media+1% FBS to give the appropriate cell density (17,500 cells/mL for FaDu; 20,000 cells/mL for H358). 100 μL of cell suspension/well was dispensed into the 96-well plate while keeping the outer wells of the plate free of cells and filled with PBS to prevent evaporation of interior wells. The plate was incubated at 37° C. and allowed to adhere overnight. The cells were treated with a dose response of compound and incubated at 37° C. for 30 minutes. The cells were then processed and pAKT(S473) levels were assessed following the specifications of the Cisbio HTRF kit.
On the technique in general: TR-FRET usually uses a lanthanide donor and a delayed reading to cut background.

T1 sequence (P42336 whole entry): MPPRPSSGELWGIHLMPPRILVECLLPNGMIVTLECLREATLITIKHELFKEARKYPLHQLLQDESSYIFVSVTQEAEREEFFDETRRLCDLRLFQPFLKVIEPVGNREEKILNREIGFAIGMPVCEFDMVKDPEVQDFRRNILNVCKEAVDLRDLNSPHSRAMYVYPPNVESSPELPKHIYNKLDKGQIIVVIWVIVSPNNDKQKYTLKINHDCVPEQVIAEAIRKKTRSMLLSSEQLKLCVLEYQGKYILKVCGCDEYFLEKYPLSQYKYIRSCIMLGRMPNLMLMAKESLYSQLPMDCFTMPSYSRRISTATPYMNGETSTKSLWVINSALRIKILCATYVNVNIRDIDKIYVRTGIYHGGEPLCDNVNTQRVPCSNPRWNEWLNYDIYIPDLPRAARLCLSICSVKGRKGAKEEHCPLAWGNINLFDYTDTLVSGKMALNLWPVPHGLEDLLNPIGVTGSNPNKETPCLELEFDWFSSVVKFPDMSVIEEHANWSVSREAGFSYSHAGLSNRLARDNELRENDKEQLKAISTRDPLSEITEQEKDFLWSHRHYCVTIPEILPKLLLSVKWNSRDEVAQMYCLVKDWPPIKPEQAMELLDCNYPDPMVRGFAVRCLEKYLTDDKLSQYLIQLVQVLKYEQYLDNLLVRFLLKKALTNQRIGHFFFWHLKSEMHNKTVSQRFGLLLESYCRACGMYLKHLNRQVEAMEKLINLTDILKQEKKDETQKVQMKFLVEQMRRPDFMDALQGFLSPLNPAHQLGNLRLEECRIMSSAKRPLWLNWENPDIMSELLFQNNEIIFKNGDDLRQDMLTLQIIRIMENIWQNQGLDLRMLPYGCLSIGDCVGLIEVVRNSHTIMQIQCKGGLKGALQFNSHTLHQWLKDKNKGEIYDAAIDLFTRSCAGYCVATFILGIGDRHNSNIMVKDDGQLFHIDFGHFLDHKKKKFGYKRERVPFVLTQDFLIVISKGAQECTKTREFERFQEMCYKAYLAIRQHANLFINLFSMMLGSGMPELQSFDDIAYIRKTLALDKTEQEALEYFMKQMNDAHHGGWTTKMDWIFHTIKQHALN
T1 sequence (P27986 whole entry partner): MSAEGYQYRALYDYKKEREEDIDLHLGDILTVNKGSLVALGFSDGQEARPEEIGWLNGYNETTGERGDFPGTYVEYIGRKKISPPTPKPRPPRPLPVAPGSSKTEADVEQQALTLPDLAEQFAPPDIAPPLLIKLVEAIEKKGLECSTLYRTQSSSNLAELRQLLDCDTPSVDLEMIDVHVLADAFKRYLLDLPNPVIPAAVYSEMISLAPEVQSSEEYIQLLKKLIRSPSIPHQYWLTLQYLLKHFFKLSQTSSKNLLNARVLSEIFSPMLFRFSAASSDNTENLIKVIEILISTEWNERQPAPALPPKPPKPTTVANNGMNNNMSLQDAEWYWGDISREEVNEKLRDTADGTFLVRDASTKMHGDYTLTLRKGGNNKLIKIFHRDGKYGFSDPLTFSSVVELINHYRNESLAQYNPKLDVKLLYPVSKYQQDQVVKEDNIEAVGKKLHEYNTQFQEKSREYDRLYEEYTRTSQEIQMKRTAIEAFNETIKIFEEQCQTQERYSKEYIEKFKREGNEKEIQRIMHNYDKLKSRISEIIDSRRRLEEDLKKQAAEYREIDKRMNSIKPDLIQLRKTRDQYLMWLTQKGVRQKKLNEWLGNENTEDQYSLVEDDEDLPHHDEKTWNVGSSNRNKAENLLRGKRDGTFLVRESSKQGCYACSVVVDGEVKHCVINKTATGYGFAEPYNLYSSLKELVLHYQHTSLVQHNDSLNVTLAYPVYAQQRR

As to `C[C@H](/C=C\S(C)(=O)=O)NC(=O)[C@@]1(F)CCCN(C(=O)[C@H]2CN(CC(F)(F)F)C[C@H]2c2ccccc2F)CC1` (single isomer, unassigned) [Compound 223, (R)-4-fluoro-1-((3*R,4*R)-4-(2-fluorophenyl)-1-(2,2,2-trifluoroethyl)pyrrolidine-3-carbonyl)-N-((R,Z)-4-(methylsulfonyl)but-3-en-2-yl) azepane-4-carboxamide], the IC50 at PIK3CA amounted to 510 nM; in test [1] it was 346 nM. Further, the Emax in test [1] came out at 87.5%.

As for `C[C@H]1C[C@](F)(C(=O)N[C@@H]2C=CS(=O)(=O)C2)CCN1C(=O)[C@H]1CN(CC(C)(F)F)C[C@H]1c1ccccc1Cl` (single isomer, unassigned) [Compound 221, (2*S,4*S)-1-((3R,4R)-4-(2-chlorophenyl)-1-(2,2-difluoropropyl)pyrrolidine-3-carbonyl)-N-((R)-1,1-dioxido-2,3-dihydrothiophen-3-yl)-4-fluoro-2-methylpiperidine-4-carboxamide], at PIK3CA, the IC50 was found to be 210 nM. In test [1], the IC50 came out at 123 nM and the Emax was 85%.

Take `C[C@@H](/C=C\S(C)(=O)=O)NC(=O)[C@@]1(F)CCCN(C(=O)[C@H]2CN(CC(F)(F)F)C[C@H]2c2c(F)cccc2Cl)CC1` [Compound 297, (R)-1-((3R,4R)-4-(2-chloro-6-fluorophenyl)-1-(2,2,2-trifluoroethyl)pyrrolidine-3-carbonyl)-4-fluoro-N-((S,Z)-4-(methylsulfonyl)but-3-en-2-yl)azepane-4-carboxamide]: the IC50 on PIK3CA was 910 nM. Moreover, in test [1], the IC50 stood at 1500 nM and the Emax turned out to be 87.6%.

With `C[C@H](/C=C\S(C)(=O)=O)NC(=O)C1(F)CCN(C(=O)[C@H]2CN(CC(C)(F)F)C[C@H]2c2ccccc2Cl)CC1` [Compound 179, 1-((3R,4R)-4-(2-chlorophenyl)-1-(2,2-difluoropropyl)pyrrolidine-3-carbonyl)-4-fluoro-N-((R,Z)-4-(methylsulfonyl)but-3-en-2-yl)piperidine-4-carboxamide], the IC50 on PIK3CA is 390 nM. For the same compound, in test [1], the IC50 amounted to 165 nM and the Emax was 106%.

Turning to `C[C@H](/C=C\S(C)(=O)=O)NC(=O)[C@@]1(F)CCCN(C(=O)[C@H]2CN(CC3(F)CC3)C[C@H]2c2c(F)cccc2Cl)CC1` (single isomer, unassigned) [Compound 184, (R)-1-((3*R,4*R)-4-(2-chloro-6-fluorophenyl)-1-((1-fluorocyclopropyl)methyl)pyrrolidine-3-carbonyl)-4-fluoro-N-((R,Z)-4-(methylsulfonyl)but-3-en-2-yl)azepane-4-carboxamide], at PIK3CA, the IC50 is 85 nM. Also, in test [1], the IC50 amounted to 64.6 nM and the Emax was determined as 102%.

On to `C[C@H](/C=C\S(C)(=O)=O)NC(=O)[C@@]1(F)CCCN(C(=O)[C@H]2CN(CC3(F)CC3)C[C@H]2c2ccccc2Cl)CC1` [Compound 185, (R)-1-((3R,4R)-4-(2-chlorophenyl)-1-((1-fluorocyclopropyl)methyl)pyrrolidine-3-carbonyl)-4-fluoro-N-((R,Z)-4-(methylsulfonyl)but-3-en-2-yl)azepane-4-carboxamide], for which the IC50 at PIK3CA turned out to be 290 nM. Besides, in test [1], the IC50 was 123 nM and the Emax is 95.6%.

On to `C[C@H](/C=C\S(C)(=O)=O)NC(=O)[C@@]1(F)CCCN(C(=O)[C@@H]2CN(CC(C)(F)F)C[C@@H]2c2cccc(F)c2Cl)CC1` (single isomer, unassigned) [Compound 222, (R)-1-((3*S,4*S)-4-(2-chloro-3-fluorophenyl)-1-(2,2-difluoropropyl)pyrrolidine-3-carbonyl)-4-fluoro-N-((R,Z)-4-(methylsulfonyl)but-3-en-2-yl)azepane-4-carboxamide], for which the IC50 at PIK3CA came out at 210 nM; in test [1] it was 146 nM. The Emax in test [1] amounted to 91%.

On to `C[C@H]1C[C@](F)(C(=O)N[C@@H]2C=CS(=O)(=O)C2)CCN1C(=O)[C@H]1CN(CC(F)(F)F)C[C@H]1c1cccc(F)c1Cl` (single isomer, unassigned) [Compound 175, (2*S,4*S)-1-((3*R,4*R)-4-(2-chloro-3-fluorophenyl)-1-(2,2,2-trifluoroethyl)pyrrolidine-3-carbonyl)-N-((R)-1,1-dioxido-2,3-dihydrothiophen-3-yl)-4-fluoro-2-methylpiperidine-4-carboxamide], for which the IC50 at PIK3CA was found to be 620 nM. Further, in test [1], the IC50 is 151 nM and the Emax was determined as 75.6%.

Turning to `C[C@H](/C=C\S(C)(=O)=O)NC(=O)[C@@]1(F)CCCN(C(=O)[C@H]2CN(CC(F)(F)F)C[C@H]2c2cccc(F)c2F)CC1` (single isomer, unassigned) [Compound 173, (R)-1-((3*R,4*R)-4-(2,3-difluorophenyl)-1-(2,2,2-trifluoroethyl)pyrrolidine-3-carbonyl)-4-fluoro-N-((R,Z)-4-(methylsulfonyl)but-3-en-2-yl)azepane-4-carboxamide], at PIK3CA, the IC50 is 540 nM. Besides, in test [1], the IC50 was found to be 464 nM and the Emax was 85.5%.

For `C[C@H](/C=C\S(C)(=O)=O)NC(=O)C1(F)CCN(C(=O)[C@H]2CN(CC(F)(F)F)C[C@H]2c2ccccc2Cl)C1` (stereo partly drawn) [Compound 314, 1-((3R,4R)-4-(2-chlorophenyl)-1-(2,2,2-trifluoroethyl)pyrrolidine-3-carbonyl)-3-fluoro-N-((R,Z)-4-(methylsulfonyl)but-3-en-2-yl)pyrrolidine-3-carboxamide], the IC50 on PIK3CA turned out to be 1100 nM. In test [1], the IC50 amounted to 622 nM and the Emax turned out to be 100%.

Take `C[C@H](/C=C\S(C)(=O)=O)NC(=O)[C@@]1(F)CCCCN(C(=O)[C@H]2CN(CC(F)(F)F)C[C@H]2c2ccccc2Cl)CC1` (single isomer, unassigned) [Compound 272, (*R)-1-((3R,4R)-4-(2-chlorophenyl)-1-(2,2,2-trifluoroethyl)pyrrolidine-3-carbonyl)-4-fluoro-N-((R,Z)-4-(methylsulfonyl)but-3-en-2-yl)azocane-4-carboxamide]: the IC50 was 880 nM at PIK3CA and 694 nM in test [1]. In test [1], the Emax was 89.8%.

On to `C[C@H](/C=C\S(C)(=O)=O)NC(=O)[C@@]1(F)CCCN(C(=O)N2CCN(CC(F)(F)F)C[C@H]2c2ccccc2Cl)CC1` (single isomer, unassigned) [Compound 309, (R)-1-((*R)-2-(2-chlorophenyl)-4-(2,2,2-trifluoroethyl)piperazine-1-carbonyl)-4-fluoro-N—((R,Z)-4-(methylsulfonyl)but-3-en-2-yl)azepane-4-carboxamide], for which the IC50 on PIK3CA turned out to be 390 nM; in test [1] it was 276 nM. Moreover, in test [1], the Emax was found to be 91.8%.

In the case of `C[C@H](/C=C\S(C)(=O)=O)NC(=O)C1(F)CCN(C(=O)[C@H]2CCC(C)(C)C[C@@H]2c2ccccc2Cl)CC1` (racemic) [Compound 255, 1-((1*S,2*S)-2-(2-chlorophenyl)-4,4-dimethylcyclohexane-1-carbonyl)-4-fluoro-N-((R,Z)-4-(methylsulfonyl)but-3-en-2-yl)piperidine-4-carboxamide], the results for the IC50 (at PIK3CA; in test [1]) were 430 nM and 67 nM, respectively. The Emax in test [1] amounted to 86.7%.
